According to patent US7501542B2, “Highly-packed polycationic ammonium, sulfonium and phosphonium lipids” (Invitrogen Corporation, priority 1993, dated 2009):

Experiments:
[1] = system: CHO-K1 cells; test: Transfection of CHO-K1 cells with pCMV β-gal DNA, in situ β-galactosidase staining; assay type: cell-based, Chinese hamster; settings: CHO-K1 cells (Table 3)
Description: (§1) All cell lines were obtained from American Type Culture Collection (Rockville, Md.). Standard tissue culture methods were employed. Chinese hamster ovary (CHO-K1) cells were cultured in EMEM (GIBCO BRL) containing 2 mM proline and 5% (v/v) fetal bovine serum (FBS). NIH 3T3 cells were cultured in Dulbecco's-modified Eagle's medium (DMEM) containing 10% (v/v) calf serum (CS). Jurkat cells were cultured in RPMI 1640 (GIBCO BRL) containing 10% (v/v) FBS. Human fibroblasts were isolated from neonatal foreskin tissue and prepared as follows. Rinsed, fresh tissue was exposed to 25 units/ml dispase (Collaborative Research, Bedford, Mass.) overnight at 4° C., separated into epidermis and dermis, and the minced dermis was digested 10 min at 37° C. in 0.25% (v/v) trypsin, 1 mM EDTA. The reaction was stopped by a rinse and centrifugation in DMEM with 10% (v/v) FBS, in which the cells were also cultured. All cultures were incubated at 37° C., 5% CO2. Media for all cultures routinely included 100 units/ml penicillin and 100 μg/ml streptomycin. […]
(§2) Cell lysates were assayed for β-galactosidase activity as described by Sanes et al. (1986) EMBO J. 5:3133. […] Transfection efficiency is evaluated by counting or estimating the number of β-gal positive cells (blue-stained cells). […]

[2] = system: Jurkat cells; test: Transfection of Jurkat cells with pCMVCAT DNA, CAT activity of cell lysates; assay type: cell-based
Description: All cell lines were obtained from American Type Culture Collection (Rockville, Md.). Standard tissue culture methods were employed. Chinese hamster ovary (CHO-K1) cells were cultured in EMEM (GIBCO BRL) containing 2 mM proline and 5% (v/v) fetal bovine serum (FBS). NIH 3T3 cells were cultured in Dulbecco's-modified Eagle's medium (DMEM) containing 10% (v/v) calf serum (CS). Jurkat cells were cultured in RPMI 1640 (GIBCO BRL) containing 10% (v/v) FBS. Human fibroblasts were isolated from neonatal foreskin tissue and prepared as follows. Rinsed, fresh tissue was exposed to 25 units/ml dispase (Collaborative Research, Bedford, Mass.) overnight at 4° C., separated into epidermis and dermis, and the minced dermis was digested 10 min at 37° C. in 0.25% (v/v) trypsin, 1 mM EDTA. The reaction was stopped by a rinse and centrifugation in DMEM with 10% (v/v) FBS, in which the cells were also cultured. All cultures were incubated at 37° C., 5% CO2. Media for all cultures routinely included 100 units/ml penicillin and 100 μg/ml streptomycin.
For transfection of Jurkat cells in suspension, lipid and DNA (pCMVCAT) were diluted separately into 500 μl aliquots of Opti-MEM I Reduced Serum Medium (GIBCO BRL; serum-free). These aliquots were gently mixed and incubated at room temperature for 15-45 minutes to form lipid-DNA complexes. […]

[3] = system: primary human fibroblasts; test: Transfection of primary human fibroblasts with pCMV β-gal DNA, in situ β-galactosidase staining; assay type: cell-based
Description: All cell lines were obtained from American Type Culture Collection (Rockville, Md.). Standard tissue culture methods were employed. […] Human fibroblasts were isolated from neonatal foreskin tissue and prepared as follows. Rinsed, fresh tissue was exposed to 25 units/ml dispase (Collaborative Research, Bedford, Mass.) overnight at 4° C., separated into epidermis and dermis, and the minced dermis was digested 10 min at 37° C. in 0.25% (v/v) trypsin, 1 mM EDTA. The reaction was stopped by a rinse and centrifugation in DMEM with 10% (v/v) FBS, in which the cells were also cultured. All cultures were incubated at 37° C., 5% CO2. Media for all cultures routinely included 100 units/ml penicillin and 100 μg/ml streptomycin.
For transfection of CHO-K1, NIH-3T3, and human fibroblast cells in 24-well plates, lipid and DNA (PCMV β-gal) were diluted separately into 25 μl aliquots of Opti-MEM I Reduced Serum Medium (GIBCO BRL; serum-free). […]
Cells were rinsed with PBS, fixed for 5 minutes in 2% (v/v) formaldehyde, 0.2% glutaraldehyde in PBS, rinsed twice with PBS, and stained 2 hr to overnight with 0.1% β-gal, 5 mM potassium ferrocyanide, 5 mM potassium ferrocyanide, 2 mM MgCl2 in PBS. […] Transfection efficiency is evaluated by counting or estimating the number of β-gal positive cells (blue-stained cells). […]

[4] = system: NIH-3T3 cells; test: Transfection of NIH-3T3 cells with pCMV β-gal DNA, in situ β-galactosidase staining; assay type: cell-based
Description: as §1, §2

“N,N,N′,N′-tetramethyltetrapalmyl-sperminetetrammonium iodide [Compound 3]” was tested. Which “effectiveness for DNA transfection” value [1] did it give?
Its value is “highly effective”.

And the “effectiveness for DNA transfection” value ([2]; Jurkat cells (Table 4))?
Its value is “highly effective”.

What about the “transfection efficiency relative to DOSPA” value ([2]; Jurkat cells, lower concentration of lipid required for optimal activity) of the same substance?
The value was “comparable to DOSPA”.

What about the “transfection efficiency relative to DOSPA” value ([3]; human fibroblasts, lower concentration of lipid required for optimal activity) of the same substance?
Its value is “comparable to DOSPA”.

What about the “effectiveness for DNA transfection” value ([3]; primary human fibroblast cells (Table 1)) of the same substance?
Its value is “highly effective”.

What about the “effectiveness for DNA transfection” value ([4]; NIH-3T3 cells (Table 2)) of the same substance?
Its value is “highly effective”.

And the “transfection effectiveness relative to DOSPA” value ([4]; NIH-3T3 cells, low amounts of DNA)?
The value was “approximately 10 fold”.
